Values quoted from earlier work, collected in patent publication US20170027865A1, “Dry Pharmaceutical Compositions for Topical Delivery of Oral Medications, Nasal Delivery and to Treat Ear Disorders” (CMPD LICENSING LLC, priority 2013, published 2017).

Legend:
[1] = test system: Paracoccidioides brasiliensis

Measured: Expected coverage

C[C@@H]1[C@H](O)[C@@H](C)/C=C/C=C/C=C/C=C/C=C/C=C/C=C/[C@H](O[C@@H]2O[C@H](C)[C@@H](O)[C@H](N)[C@@H]2O)C[C@@H]2O[C@](O)(C[C@@H](O)C[C@@H](O)[C@H](O)CC[C@@H](O)C[C@@H](O)CC(=O)O[C@H]1C)C[C@H](O)[C@H]2C(=O)O [Amphotericin, amphotericin B]
yes: Leishmania infantum | [1] | Aspergillus niger | Candida species | Leishmania donovani | Cryptococcus neoformans | Aspergillus flavus | Aspergillus terreus | Coccidioides immitis | Blastomyces dermatitidis | Aspergillus fumigatus | Histoplasma capsulatum

OC(Cn1cncn1)(Cn1cncn1)c1ccc(F)cc1F [Fluconazole, fluconazole]
yes: Candida species | Cryptococcus neoformans | Aspergillus flavus | Coccidioides immitis | Blastomyces dermatitidis | Aspergillus fumigatus | Histoplasma capsulatum

C[C@@H](c1ncncc1F)[C@](O)(Cn1cncn1)c1ccc(F)cc1F [Voriconazole, voriconazole]
yes: Scedosporium apiospermum | Aspergillus niger | Candida species | Aspergillus flavus | Fusarium species | Aspergillus terreus | Aspergillus fumigatus
